According to patent publication US10857201B2, “NNIF and nNIF-related peptides and related methods” (UNIVERSITY OF UTAH RESEARCH FOUNDATION, priority 2016, dated 2020):

System: NET formation in E. coli peritonitis
Assay: Mouse model of E. coli peritonitis (in vivo NET formation)
Details: for NET formation by peritoneal fluid PMNs / deployment of NETs on the peritoneal surface / number of PMNs in peritoneal fluid: C57BL/6 mice, 3 hours; for NET formation by peritoneal fluid PMNs / deployment of NETs on the peritoneal surface: 10 mg/kg i.p. 1 hour before E. coli i.p.; for number of PMNs in peritoneal fluid: E. coli i.p.; for peritoneal NET formation: Swiss Webster mice infected with E. coli
Excerpt: FIG. 8A depicts results of peritoneal fluid NET formation (red fluorescence, yellow arrow) assessed by live cell imaging (60× magnification, scale bar=50 μm) and histone H3 release (red dashed line=baseline arbitrarily set at 1). Three mice per group. One way ANOVA with Tukey's post hoc testing, ***P<0.001 for CRISPP and nNIF versus CRISPP-SCR.
FIG. 8B depicts results of NET formation on the surfaces of peritoneal membranes (red fluorescence, yellow arrows) that was quantified by counting the number of NETs that crossed standardized grid lines in […] (60× magnification; scale bar=50 μm) using IMAGEJ™ software. A second experiment yielded a similar pattern. FIGS. 8A and 8B depict C57BL/6 mice that were not pretreated or pretreated with nNIF, CRISPP, or CRISPP-SCR (10 mg/kg i.p.; 1 hour) and were inoculated with E. coli (4.5×10^7 bacteria i.p.). After 3 hours, the animals were sacrificed, and peritoneal fluid (FIG. 8A) and membranes (FIG. 8B) were collected for analysis.
FIG. 8C depicts C57BL/6 mice that were not pretreated (left two bars) or that were pretreated with CRISPP, nNIF, or CRISPP-SCR, and that were inoculated with E. coli i.p. as in FIGS. 8A and 8B. Neutrophil numbers in peritoneal fluid were counted after 3 hours (3-5 mice/group). […]
FIG. 8E depicts peritoneal fluid NET formation, imaged and measured as in FIG. 8A (10 mice/group). *P<0.05 for CRISPP/E. coli and nNIF/E. coli compared to CRISPP-SCR/E. coli and E. coli.
FIG. 8F depicts NET formation on peritoneal membrane surfaces, imaged and quantitated as in FIG. 8B (3 mice in each group). *P<0.05 for E. coli versus control (red dashed line); **P<0.01 for CRISPP-SCR/E. coli versus control; †P<0.05 for CRISPP/E. coli and nNIF/E. coli versus CRISPP-SCR/E. coli. One way ANOVA with Tukey's post-hoc testing applied in FIGS. 8E and 8F. In FIGS. 8E and 8F, Swiss-Webster mice that were not pretreated or that were pretreated with nNIF, CRISPP, or CRISPP-SCR were inoculated with E. coli i.p. as in FIGS. 8A and 8B. After 3 hours, peritoneal fluid and membranes were collected. FIGS. 8A-8F indicate that nNIF and CRISPP inhibit in vivo NET formation.
C57/BL6 or Swiss-Webster mice were pretreated in blinded fashion with CRISPP (10 mg/kg), nNIF (10 mg/kg), or CRISPP-SCR (10 mg/kg) by i.p. injection 1 hour prior to infection (E. coli, 4.5×10^7 cfu/mouse, i.p.) or inoculation (LPS, 25 mg/kg, i.p.) (SIGMA-ALDRICH®). Control mice were injected with saline alone. The mice were sacrificed in a CO2 chamber 3 hours post-infection/inoculation, and the peritoneal fluid and membrane samples were harvested. Briefly, the abdomen was disinfected and opened in the midline without injuring the muscle. The peritoneal cavity was lavaged with sterile saline solution (1 mL) and analyzed for in vivo NET formation, bacteriology, and leukocyte accumulation. NETs in the peritoneal fluid were qualitatively and quantitatively analyzed using live cell imaging with confocal microscopy and NET-associated histone H3 release assays. NETs on the serosal surface of the peritoneal membrane were assessed quantitatively using live cell imaging, followed by standardized grid analysis of five randomly selected high-power visual fields per tissue sample (IMAGEJ™ software, NIH). Peritoneal bacterial colony forming unit (cfu) counts were quantified by permeabilizing all recovered leukocytes with 0.1% Triton X-100 for 10 minutes and performing serial dilutions and bacterial cultures on 5% sheep blood agar plates (HARDY DIAGNOSTICS™). After a 24-hour incubation, bacterial counts were determined. Total leukocyte counts in the peritoneal lavage were determined in Neubauer chambers using an optical microscope after dilution in Turk's solution (2% acetic acid). Differential leukocyte analysis was performed using a 60× oil immersion objective to assess morphology of cyto-centrifuged cells stained with May-Gruenwald-Giemsa dye. All mice were included in the final analysis.

| Substance | NET formation by peritoneal fluid PMNs | deployment of NETs on the peritoneal surface | number of PMNs in peritoneal fluid | peritoneal NET formation |
| --- | --- | --- | --- | --- |
| KFNKPFVFLMIEQNTKSPLFMGKVVNPTQ (listed as Homo sapiens) [nNIF] | inhibited | inhibited | trend was to greater numbers | inhibited |
| M_IPPEVKFNKPFVFLMIDQNTKVPLFMGK [CRISPP, consensus peptide based on factors present in the blood of patients with cancer] | inhibited | inhibited | greater | inhibited |
